The record followed here is patent US20200079766A1, “MONOCYCLIC OGA INHIBITOR COMPOUNDS” (Janssen Pharmaceutica NV, priority 2016, published 2020).

For assay [1], the target named is T1, recombinant human Meningioma Expressed Antigen 5 (MGEA5), also referred to as O-GlcNAcase (OGA) (Homo sapiens, UniProt O60502).
T1 construct: Full length OGA enzyme was purchased at OriGene (cat # TP322411); purchased OriGene TP322411
T1 sequence (O60502 1-916): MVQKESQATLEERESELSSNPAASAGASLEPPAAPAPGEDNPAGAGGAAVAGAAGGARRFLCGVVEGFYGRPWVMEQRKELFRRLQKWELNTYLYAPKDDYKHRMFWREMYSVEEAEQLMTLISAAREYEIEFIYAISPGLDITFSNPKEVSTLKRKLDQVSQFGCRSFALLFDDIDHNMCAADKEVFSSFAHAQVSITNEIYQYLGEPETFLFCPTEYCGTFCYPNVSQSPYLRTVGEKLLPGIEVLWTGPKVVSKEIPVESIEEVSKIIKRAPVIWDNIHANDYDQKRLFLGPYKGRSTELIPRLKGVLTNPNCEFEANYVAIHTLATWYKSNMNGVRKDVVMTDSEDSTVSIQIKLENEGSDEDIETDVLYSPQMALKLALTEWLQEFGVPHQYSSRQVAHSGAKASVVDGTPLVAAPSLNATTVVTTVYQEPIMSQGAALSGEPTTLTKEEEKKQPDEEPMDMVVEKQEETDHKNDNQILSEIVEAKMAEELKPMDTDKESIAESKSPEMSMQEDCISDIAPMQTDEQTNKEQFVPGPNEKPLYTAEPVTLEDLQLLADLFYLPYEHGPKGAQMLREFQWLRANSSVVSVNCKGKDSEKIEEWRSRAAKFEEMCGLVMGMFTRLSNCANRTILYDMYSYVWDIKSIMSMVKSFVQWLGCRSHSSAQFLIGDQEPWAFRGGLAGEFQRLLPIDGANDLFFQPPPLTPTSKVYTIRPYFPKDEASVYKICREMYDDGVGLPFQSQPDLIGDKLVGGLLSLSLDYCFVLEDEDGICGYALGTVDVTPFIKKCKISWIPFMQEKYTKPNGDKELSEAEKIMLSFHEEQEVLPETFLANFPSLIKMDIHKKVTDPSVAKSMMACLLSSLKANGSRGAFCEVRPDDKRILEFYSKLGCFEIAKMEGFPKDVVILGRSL
Description: OGA biochemical assay: inhibition of FM-GlcNAc hydrolysis, fluorescence; protocol A (10 nM OGA, 1 h) or protocol B (2 nM OGA, 6 h). The following applies: Enzymatic protocol B (2 nM OGA, 6 h); for IC50: read-out: Enzymatic hOGA, pIC50 (converted). The source says: The assay is based on the inhibition of the hydrolysis of fluorescein mono-3-D-N-Acetyl-Glucosamine (FM-GlcNAc) (Mariappa et al. 2015, Biochem J 470:255) by the recombinant human Meningioma Expressed Antigen 5 (MGEA5), also referred to as O-GlcNAcase (OGA). The hydrolysis FM-GlcNAc (Marker Gene technologies, cat # M1485) results in the formation of ß-D-N-glucosamineacetate and fluorescein. The fluorescence of the latter can be measured at excitation wavelength 485 nm and emission wavelength 538 nm. An increase in enzyme activity results in an increase in fluorescence signal. Full length OGA enzyme was purchased at OriGene (cat # TP322411). The enzyme was stored in 25 mM Tris.HCl, pH 7.3, 100 mM glycine, 10% glycerol at −20° C. Thiamet G and GlcNAcStatin were tested as reference compounds (Yuzwa et al. 2008 Nature Chemical Biology 4:483; Yuzwa et al. 2012 Nature Chemical Biology 8:393). The assay was performed in 200 mM Citrate/phosphate buffer supplemented with 0.005% Tween-20. 35.6 g Na2HPO42H2O (Sigma, # C0759) were dissolved in 1 L water to obtain a 200 mM solution. 19.2 g citric acid (Merck, #1.06580) was dissolved in 1 L water to obtain a 100 mM solution. pH of the sodiumphosphate solution was adjusted with the citric acid solution to 7.2. The buffer to stop the reaction consists of a 500 mM Carbonate buffer, pH 11.0. 734 mg
FM-GlcNAc were dissolved in 5.48 mL DMSO to obtain a 250 mM solution and was stored at −20° C. OGA was used at a 10 nM (protocol A) or 2 nM (protocol B) concentration and FM-GlcNAc at a 100 uM final concentration. Dilutions were prepared in assay buffer.
50 nl of a compound dissolved in DMSO was dispensed on Black Proxiplate™ 384 Plus Assay plates (Perkin Elmer, #6008269) and 3 μl fl-OGA enzyme mix added subsequently. Plates were pre-incubated for 60 min at room temperature and then 2 μl FM-GlcNAc substrate mix added. […] Plates were briefly centrifuged for 1 min at 1000 rpm and incubate at room temperature for 1 h (10 nM OGA, protocol A) or 6 h (2 nM OGA, protocol B). To stop the reaction 5 μl STOP buffer were added and plates centrifuge again 1 min at 1000 rpm. Fluorescence was quantified in the Thermo Scientific Fluoroskan Ascent or the PerkinElmer EnVision with excitation wavelength 485 nm and emission wavelength 538 nm.
For analysis a best-fit curve is fitted by a minimum sum of squares method. From this an IC50 value and Hill coefficient was obtained. High control (no inhibitor) and low control (saturating concentrations of standard inhibitor) were used to define the minimum and maximum values.

In assay [2] the test system is OGA in HEK293 cells inducible for P301L mutant human Tau (isoform 2N4R). Description: OGA cellular assay: immunocytochemical detection of O-GlcNAcylated proteins (CTD110.6 antibody) after 6 h incubation. Format: cell-based. The following applies: for Emax / EC50: Homo sapiens, HEK293, 6 h; for Emax / Cellular Emax (%): maximum = Thiamet G 200 uM; for EC50: read-out: Cellular hOGA, pEC50 (converted). As to the method: HEK293 cells inducible for P301L mutant human Tau (isoform 2N4R) were established at Janssen. Thiamet-G was used for both plate validation (high control) and as reference compound (reference EC50 assay validation). OGA inhibition is evaluated through the immunocytochemical (ICC) detection of O-GlcNAcylated proteins by the use of a monoclonal antibody (CTD110.6; Cell Signaling, #9875) detecting O-GlcNAcylated residues as previoulsy described (Dorfmueller et al. 2010 Chemistry & biology, 17:1250). Inhibition of OGA will result in an increase of O-GlcNAcylated protein levels resulting in an increased signal in the experiment. Cell nuclei are stained with Hoechst to give a cell culture quality control and a rough estimate of immediate compounds toxicity, if any. ICC pictures are imaged with a Perkin Elmer Opera Phenix plate microscope and quantified with the provided software Perkin Elmer Harmony 4.1.
Cells were propagated in DMEM high Glucose (Sigma, # D5796) following standard procedures. 2 days before the cell assay cells are split, counted and seeded in Poly-D-Lysine (PDL) coated 96-wells (Greiner, #655946) plate at a cell density of 12,000 cells per cm^2 (4,000 cells per well) in 100 μl of Assay Medium (Low Glucose medium is used to reduce basal levels of GlcNAcylation) (Park et al. 2014 The Journal of biological chemistry 289:13519). At the day of compound test medium from assay plates was removed and replenished with 90 μl of fresh Assay Medium. 10 μl of compounds at a 10 fold final concentration were added to the wells. Plates were centrifuged shortly before incubation in the cell incubator for 6 hours. DMSO concentration was set to 0.2%. Medium is discarded by applying vacuum. For staining of cells medium was removed and cells washed once with 100 μl D-PBS (Sigma, # D8537). From next step onwards unless other stated assay volume was always 50 μl and incubation was performed without agitation and at room temperature. Cells were fixed in 50 μl of a 4% paraformaldehyde (PFA, Alpha aesar, #043368) PBS solution for 15 minutes at room temperature. […] Before analysis samples were washed 2 times manually for 5 minutes in ICC base buffer.
Imaging is performed using Perkin Elmer Phenix Opera using a water 20× objective and recording 9 fields per well. Intensity readout at 488 nm is used as a measure of O-GlcNAcylation level of total proteins in wells. To assess potential toxicity of compounds nuclei were counted using the Hoechst staining. IC50-values are calculated using parametric non-linear regression model fitting. As a maximum inhibition Thiamet G at a 200 uM concentration is present on each plate. In addition, a concentration response of Thiamet G is calculated on each plate.

As for `Cc1cc(CC2CCCN(C(C)c3ccc4scnc4c3)C2)cc(C)n1` (racemic) [compound 148], in assay [1], the Emax – broadly, the size of the effect at its maximum, as opposed to the concentration needed – is 102% and the IC50 was 6.31 nM. For the same compound, in assay [2], the Emax was 105% and the EC50 is 56.2 nM.
On the same counts, the results for `CC(=O)Nc1ncc(CN2CCCC(Nc3ccnc(C)c3)C2)s1` (racemic) [compound 155] are 101%, 6.03 nM, 84.2% and 14.8 nM.
Turning to `Cc1cc(NC2CCCN(C(C)c3ccc4nccnc4c3)C2)cc(C)n1` (racemic) [compound 156], in assay [1], the Emax amounted to 97.4% and the IC50 was 43.7 nM. Moreover, in assay [2], the Emax turned out to be 89% and the EC50 is 468 nM.
As to `CC(=O)Nc1ncc(CN2CCC[C@H](Cc3cc(C)nc(C)n3)C2)s1` (single isomer, unassigned) [compound 25], in assay [1], the Emax amounted to 101% and the IC50 was 1.82 nM. Moreover, in assay [2], the Emax worked out at 97.8% and the EC50 was 9.77 nM.
Consider `CC(=O)Nc1ncc(CN2CCC[C@@H](Cc3cc(C)nc(C)n3)C2)s1` (single isomer, unassigned) [compound 26], for which, in assay [1], the Emax came out at 99.5% and the IC50 was 26.9 nM. Moreover, in assay [2], the Emax is 72.3% and the EC50 is 525 nM.
Take `Cc1cc(CC2CCCN(C(C)c3ccc4sc(C)nc4c3)C2)cc(C)n1` (single isomer, unassigned) [compound 118]: in assay [1], the Emax worked out at 100% and the IC50 is 46.8 nM. Besides, in assay [2], the “Cellular hOGA; pEC50” value is 6.24 and the “Cellular Emax (%)” value is reported as 62.2%.
`Cc1cc(CC2CCCN(C(C)c3ccc4sc(C)nc4c3)C2)cc(C)n1` (single isomer, unassigned) [compound 119]: in assay [1], the “Enzymatic Emax (%)” value is 103.7% and the IC50 was 2.88 nM. Also, in assay [2], the “Cellular hOGA; pEC50” value is 7.38 and the “Cellular Emax (%)” value is given as 107.3%.
In the case of `CC(=O)Nc1ncc(CN2CCCC(c3cc(C)nc(C)c3)C2)s1` (single isomer, unassigned) [compound 130], in assay [1], the Emax was found to be 103% and the IC50 was 9.12 nM. Moreover, in assay [2], the Emax was 99% and the EC50 is 13.2 nM.
In the same order, the values of `CC(=O)Nc1ncc(C(C)N2CCCC(COc3cc(C)nc(C)c3)C2)s1` (single isomer, unassigned) [compound 134] are 100%, 28.2 nM, 79.5% and 52.5 nM.
On to `CC(=O)Nc1ncc([C@@H](C)N2CCC[C@@H](COc3cc(C)nc(C)c3)C2)s1` (single isomer, unassigned) [compound 135], for which, in assay [1], the Emax was 104% and the IC50 was 178 nM. Besides, in assay [2], the “Cellular hOGA; pEC50” value stood at 6.3 and the “Cellular Emax (%)” value was found to be 67.9%.
Take `CC(=O)Nc1ncc([C@@H](C)N2CCC[C@H](COc3cc(C)nc(C)c3)C2)s1` (single isomer, unassigned) [compound 136]: in assay [1], the Emax was found to be 100% and the IC50 is 95.5 nM. In assay [2], the Emax came out at 70.6% and the EC50 was 479 nM.
`CC(=O)Nc1ncc([C@@H](C)N2CCC[C@@H](COc3cc(C)nc(C)c3)C2)s1` (single isomer, unassigned) [compound 137]: in assay [1], the “Enzymatic Emax (%)” value is listed as 102.2% and the IC50 is 0.955 nM. In assay [2], the “Cellular hOGA; pEC50” value is 8.83 and the “Cellular Emax (%)” value came to 94.7%.
For the compound `CC(=O)Nc1ncc(CN2CCCC(c3ccnc(C)c3)C2)s1` (centres unmarked) [compound 6], in assay [1], the Emax turned out to be 101% and the IC50 was 27.5 nM. Moreover, in assay [2], the Emax turned out to be 98.7% and the EC50 is 27.5 nM.
For the compound `CC(=O)Nc1ncc(CN2CCCC(c3cc(C)nc(C)c3)C2)s1` (centres unmarked) [compound 7], in assay [1], the Emax was 99.3% and the IC50 is 17.8 nM. For the same compound, in assay [2], the Emax was found to be 98.9% and the EC50 was 8.91 nM.
As for `CC(=O)Nc1ncc(CN2CCC[C@H](Nc3cc(C)nc(C)c3)C2)s1` [compound 9], in assay [1], the Emax came to 103% and the IC50 is 3.72 nM. In assay [2], the Emax came out at 102% and the EC50 was 47.9 nM.
Take `Cc1cc(N[C@@H]2CCCN(C(C)c3ccc4nccnc4c3)C2)cc(C)n1` (some centres unmarked) [compound 11]: in assay [1], the Emax stood at 101% and the IC50 is 25.7 nM. In assay [2], the Emax came to 65.2% and the EC50 was 4270 nM.
On to `CC(=O)Nc1ncc(CN2CCCC(Oc3cc(C)cc(C)c3)C2)s1` (centres unmarked) [compound 13, reference compound], for which, in assay [1], the Emax worked out at 98.7% and the IC50 is 93.3 nM. In addition, in assay [2], the Emax came out at 92.1% and the EC50 was 316 nM.
